Laboratory results: patent US20250136581A1, “SUBSTITUTED TRIAZOLE DERIVATIVE, PREPARATION METHOD THEREFOR, PHARMACEUTICAL COMPOSITION THEREOF, AND USE THEREOF” (SHANGHAI SIMR BIOTECHNOLOGY CO., LTD., priority 2021, published 2025)

Legend:
human α2β3γ2 receptors = human α2β3γ2 receptors (Homo sapiens (Human), UniProt P18507+P47869); experiment: 3H-flunitrazepam competition binding, human α2β3γ2 GABAA receptor; settings: HEK293 cell membranes, 1 nM 3H-flunitrazepam; read-out: Ki α2
Protocol: (§1) The affinity of the compound to each subtype of GABAA receptor was determined by competing for the binding of ^3H-flunitrazepam to HEK293 cells stably expressing human α1β3γ2, α2β3γ2, α3β3γ2, and α5β3γ2 receptors.
(§2) The cells were suspended in 50 mM Tris-HCl buffer (pH=7.4), homogenized 10 times on ice with a homogenizer for 20 seconds, and centrifuged at 1000 g for 10 minutes at 4° C. The supernatant was collected, and the above steps were repeated. The supernatant was centrifuged at 4° C. (33800 g; Thermo, rotor: A27-8×50) for 60 minutes, and the precipitate was resuspended in Tris buffer (50 mM Tris-HCl, 10 mM MgCl2, 0.5 mM EDTA, 10% glycerol). Protein was measured (BCA method, Pierce), and 1 mL aliquots were prepared and stored at −80° C.
(§3) The radioligand competition binding assay was performed in a 200 μL system (96-well plate) containing 100 μL of cell membrane. The concentration of ^3H-flunitrazepam was 1 nM and the concentration of the test compound was in the range of […]. Flumazenil was used as a control. 1 μL of 2 mM flumazenil (final concentration […]) was added to the low signal control well (Low control, LC), and 1 μL of DMSO was added to the high signal control well (High control, HC). The final concentration of target membrane protein was […]. All test compound sample storage solutions were 10 mM. The working concentration of the samples was to dilute all the samples to 0.2 mM with DMSO, followed by 4-fold serial gradient dilutions for a total of 8 concentration gradients. The 96-well plate was sealed with a sealing film, and then incubated on a shaker at room temperature for 1 hour. At the same time, the GF/C filter plate was soaked in soaking buffer (0.3% PEI, stored at 4° C.) for at least 0.5 hours. After the binding incubation was completed, the cells were collected onto a GF/C filter plate using a cell harvester. The plate was washed four times with washing buffer (50 mM Tris-HCl, pH 7.4, stored at 4° C.). After drying in a 50° C. oven for 1 hour, the bottom of the dried GF/C filter plate was sealed. The residual radioactivity on the filter membrane was detected using liquid scintillation counting. 50 μL of scintillation fluid was added to each well, and the plate was sealed. The readings were taken using a Microbeta2. The inhibitory activity of the test sample on the binding of ^3H-flunitrazepam to GABAA receptor membrane proteins was calculated, and the IC50 of each test sample was calculated by dose-effect curve fitting (GraphPad Prism 5 software), and the Ki of the sample was calculated from the IC50, thus evaluating the binding ability of the sample to the various subtypes of GABAA receptors.

[1] = target: human α5β3γ2 receptors (α5-GABAA receptor) (Homo sapiens (Human), UniProt P18507+P31644); experiment: 3H-flunitrazepam competition binding, human α5β3γ2 GABAA receptor; settings: HEK293 cell membranes, 1 nM 3H-flunitrazepam; read-out: α5-GABAAR Ki
In short: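 HEK293 membranes stably expressing each human receptor subtype ([…]) competed against 1 nM 3H-flunitrazepam in Tris buffer, 1 h at room temperature; flumazenil defined the low-signal control. Eight-point 4-fold test-compound dilutions; GF/C filtration and scintillation counting gave IC50 by curve fitting, converted to Ki.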

human α1β3γ2 receptors = human α1β3γ2 receptors (Homo sapiens (Human), UniProt P14867+P18507); experiment: 3H-flunitrazepam competition binding, human α1β3γ2 GABAA receptor; settings: HEK293 cell membranes, 1 nM 3H-flunitrazepam; read-out: Ki α1
Protocol: as §1, §2, §3

[2] = target: α5-GABAA receptor (α5, β3, γ2 subunits) (Homo sapiens (Human), UniProt P18507+P31644); experiment: Whole cell patch clamp, inverse agonist efficacy in HEK293 cells expressing α5-GABAA receptor; format: cell-based; settings: GABA 0.05 μM, −60 mV; for inhibition at 0.1 µM: HEK293, drug 100 nM, read-out: Compound inverse agonist efficacy %
In short: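 Stable HEK293 line co-expressing human α5, β3, γ2 subunits; whole-cell patch clamp at −60 mV, inward current evoked by 0.05 μM GABA, then compound at 100 nM in GABA solution applied. Effect derived from leak, pre- and post-drug GABA currents.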

human α3β3γ2 receptors = human α3β3γ2 receptors (Homo sapiens (Human), UniProt P18507+P34903); experiment: 3H-flunitrazepam competition binding, human α3β3γ2 GABAA receptor; settings: HEK293 cell membranes, 1 nM 3H-flunitrazepam; read-out: Ki α3
Protocol: as §1, §2, §3

Row | Compound | Ki (human α2β3γ2 receptors) [nM] | Ki [1] [nM] | Ki (human α1β3γ2 receptors) [nM] | inhibition at 0.1 µM [2] [%] | Ki (human α3β3γ2 receptors) [nM] | Compound inverse agonist efficacy % ([2]; drug 100 nM) [%]
1 | Cc1nnn(-c2ccc(C(F)F)cc2)c1COc1ccc(N2CCN[C@H](C(=O)O)C2)nn1 [Example 27, (S)-4-(6-((1-(4-(Difluoromethyl)phenyl)-4-methyl-1H-1,2,3-triazol-5-yl)methoxy)pyridazin-3-yl)piperazine-2-carboxylic acid] | 107 | 3.65 | 333 | 59.1 | 135 | –
2 | Cc1nnn(-c2ccc(C(F)F)cc2)c1COc1ccc(N2C[C@H]3C[C@@H]2C(=O)N3)nn1 [Example 116, (1R,4R)-5-(6-((1-(4-(Difluoromethyl)phenyl)-4-methyl-1H-1,2,3-triazol-5-yl)methoxy)pyridazin-3-yl)-2,5-diazabicyclo[2.2.1]heptan-3-one] | 50.1 | 1.66 | 65.2 | 48.4 | 22.7 | –
3 | Cc1nnn(-c2ccc(C(F)F)cc2)c1COc1ccc(N2CCN3CC(C4CC4)NC(=O)[C@@H]3C2)nn1 (single isomer, unassigned) [Example 204] | 70.1 | 2.31 | 158 | – | 50.3 | −68.71
4 | CCNC(=O)C1CN(c2ccc(OCc3c(C)nnn3-c3ccc(C(F)F)cc3)nn2)C1 [Example 43, 1-(6-[(1-(4-(Difluoromethyl)phenyl)-4-methyl-1H-1,2,3-triazol-5-yl)methoxy]pyridazin-3-yl)-N-ethylazetidine-3-carboxamide] | 72.7 | 4.49 | 149 | 52.2 | 18.5 | –
5 | Cc1nnn(-c2ccc(C(F)F)cc2)c1COc1ccc(N2CCN3CCN(C4CC4)C(=O)[C@@H]3C2)nn1 [Example 148, (S)-2-Cyclopropyl-8-(6-((1-(4-(difluoromethyl)phenyl)-4-methyl-1H-1,2,3-triazol-5-yl)methoxy)pyridazin-3-yl)hexahydro-2H-pyrazino[1,2-a]pyrazin-1(6H)-one] | 117 | 2.5 | 445 | 42.6 | 56.2 | –
6 | Cc1nnn(-c2ccc(C(F)F)cc2)c1COc1ccc(N2CC(=O)N3CCOC[C@H]3C2)nn1 [Example 173, (R)-8-(6-((1-(4-(Difluoromethyl)phenyl)-4-methyl-1H-1,2,3-triazol-5-yl)methoxy)pyridazin-3-yl)hexahydropyrazino[2,1-c][1,4]oxazin-6(1H)-one] | 16.8 | 0.55 | 80.6 | 50.8 | 14.1 | –
7 | Cc1nnn(-c2ccc(C(F)F)cc2)c1COc1ccc(N2CCN3CCNC(=O)[C@@H]3C2)nn1 [Example 54, (S)-8-(6-((1-(4-(Difluoromethyl)phenyl)-4-methyl-1H-1,2,3-triazol-5-yl)methoxy)pyridazin-3-yl)hexahydro-2H-pyrazino[1,2-a]pyrazin-1(6H)-one] | 71.6 | 2.55 | 294 | 50.9 | 49.8 | –
8 | Cc1nnn(-c2ccc(F)cc2)c1COc1ccc(N2CCNC(=O)C2)nn1 [Example 76, 4-(6-((1-(4-Fluorophenyl)-4-methyl-1H-1,2,3-triazol-5-yl)methoxy)pyridazin-3-yl)piperazin-2-one] | 301 | 2.87 | 832 | 45.3 | 173 | –
9 | Cc1nnn(-c2ccc(C(F)F)cc2)c1COc1ccc(N2CCNC2=O)nn1 [Example 19, 1-(6-((1-(4-(Difluoromethyl)phenyl)-4-methyl-1H-1,2,3-triazol-5-yl)methoxy)pyridazin-3-yl)imidazolidin-2-one] | 10.4 | 0.52 | 15.8 | 53.7 | 7.34 | –
10 | Cc1nnn(-c2ccc(C(F)F)cc2)c1COc1ccc(N2CCNC(=O)C2)nn1 [Example 2, 4-(6-((1-(4-(Difluoromethyl)phenyl)-4-methyl-1H-1,2,3-triazol-5-yl)methoxy)pyridazin-3-yl)piperazin-2-one] | 19.8 | 2.15 | 145 | 58.8 | 28.6 | –
11 | N#Cc1nnn(-c2ccc(C(F)F)cc2)c1COc1ccc(N2CCNC(=O)C2)nn1 [Example 78, 1-(4-(Difluoromethyl)phenyl)-5-(((6-(3-oxopiperazin-1-yl)pyridazin-3-yl)oxy)methyl)-1H-1,2,3-triazole-4-carbonitrile] | 45.9 | 2.03 | 246 | 43.7 | 28.4 | –
12 | Cc1nnn(-c2ccc(C(F)F)cc2)c1COc1ccc(N2CCN3CCNC(=O)[C@H]3C2)nn1 [Example 55, (R)-8-(6-((1-(4-(Difluoromethyl)phenyl)-4-methyl-1H-1,2,3-triazol-5-yl)methoxy)pyridazin-3-yl)hexahydro-2H-pyrazino[1,2-a]pyrazin-1(6H)-one] | 56.4 | 0.39 | 178 | 51.6 | 27.5 | –
13 | O=C1CN(c2ccc(OCc3c(CO)nnn3-c3ccc(C(F)F)cc3)nn2)CCN1 [Example 80, 4-(6-((1-(4-(Difluoromethyl)phenyl)-4-(hydroxymethyl)-1H-1,2,3-triazol-5-yl)methoxy)pyridazin-3-yl)piperazin-2-one] | 22.7 | 0.82 | 161 | 54.8 | 16 | –
14 | Cc1nnn(-c2ccc(C(F)F)cc2)c1COc1ccc(N2CCN3c4ccccc4NC(=O)[C@@H]3C2)nn1 [Example 122, (S)-3-(6-((1-(4-(Difluoromethyl)phenyl)-4-methyl-1H-1,2,3-triazol-5-yl)methoxy)pyridazin-3-yl)-2,trans-3,4,4a-tetrahydro-1H-pyrazino[1,2-a]quinoxalin-5(6H)-one] | 149 | 2.46 | 266 | 48.7 | 67.3 | –
15 | Cc1nnn(-c2ccc(C(F)F)cc2)c1COc1ccc(N2CC(=O)NC3(CC3)C2)nn1 [Example 8, 7-(6-((1-(4-(Difluoromethyl)phenyl)-4-methyl-1H-1,2,3-triazol-5-yl)methoxy)pyridazin-3-yl)-4,7-diazaspiro[2.5]octan-5-one] | 22.2 | 0.89 | 80.5 | 40.4 | 17 | –
16 | Cn1nnc(-c2ccc(C(F)F)cc2)c1COc1ccc(N2CCNC(=O)C2)nn1 [Example 127, 4-(6-((4-(4-(Difluoromethyl)phenyl)-1-methyl-1H-1,2,3-triazol-5-yl)methoxy)pyridazin-3-yl)piperazin-2-one] | 23.7 | 2.08 | 400 | 55 | 36.7 | –
17 | Cc1nnn(-c2ccc(C(F)F)cc2)c1COc1ccc(N2CC(C(=O)Nc3cnn(C)c3)C2)nn1 [Example 103, 1-(6-((1-(4-(Difluoromethyl)phenyl)-4-methyl-1H-1,2,3-triazol-5-yl)methoxy)pyridazin-3-yl)-N-(1-methyl-1H-pyrazol-4-yl)azetidine-3-carboxamide] | 40.1 | 1.27 | 52.8 | 49.6 | 10.3 | –
